Assay results: publication PMC12154458, “High-Throughput Screens of Repurposing Hub and DOS Chemical Libraries Reveal Compounds with Novel and Potent Inhibitory Activity Against the Essential Non-Neuronal Acetylcholinesterase of Schistosoma mansoni (SmTAChE)” (International Journal of Molecular Sciences, 2025)
Read-outs that look alike come from different tables or passages of the source.

Legend:
rSmTAChE [1] = biological target: T1, rSmTAChE (Schistosoma mansoni, UniProt A0A3Q0KMM5); assay: biochemical; details: for inhibition at 20 µM: read-out: rSmTAChE HTS Inhibition (Ave, %)
T1 sequence (A0A3Q0KMM5 27-661 limits assumed): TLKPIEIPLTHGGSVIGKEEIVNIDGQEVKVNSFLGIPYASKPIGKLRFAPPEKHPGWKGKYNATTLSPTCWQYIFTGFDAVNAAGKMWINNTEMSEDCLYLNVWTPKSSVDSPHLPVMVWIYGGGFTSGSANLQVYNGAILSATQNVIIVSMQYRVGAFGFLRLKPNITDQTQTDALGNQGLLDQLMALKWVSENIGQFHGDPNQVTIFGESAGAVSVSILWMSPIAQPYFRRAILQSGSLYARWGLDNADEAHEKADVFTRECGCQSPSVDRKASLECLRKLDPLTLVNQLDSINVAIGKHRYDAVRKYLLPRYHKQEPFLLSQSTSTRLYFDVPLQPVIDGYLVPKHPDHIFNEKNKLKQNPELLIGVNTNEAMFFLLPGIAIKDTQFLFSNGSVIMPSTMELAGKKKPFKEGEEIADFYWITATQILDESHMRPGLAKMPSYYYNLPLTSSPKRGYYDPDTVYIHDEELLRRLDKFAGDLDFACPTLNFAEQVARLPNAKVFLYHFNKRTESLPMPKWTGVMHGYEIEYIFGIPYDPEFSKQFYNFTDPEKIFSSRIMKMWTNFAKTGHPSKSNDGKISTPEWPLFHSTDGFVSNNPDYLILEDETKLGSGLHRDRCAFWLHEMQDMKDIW

rSmTAChE [2] = biological target: T1, rSmTAChE; assay type: biochemical; details: for IC50: read-out: qAC50 (IC50), rSmTAChE
[3] = biological target: recombinant human acetylcholinesterase, rHsAChE (Homo sapiens, UniProt P22303); assay: biochemical
Sequence of recombinant human acetylcholinesterase, rHsAChE (P22303 32-614): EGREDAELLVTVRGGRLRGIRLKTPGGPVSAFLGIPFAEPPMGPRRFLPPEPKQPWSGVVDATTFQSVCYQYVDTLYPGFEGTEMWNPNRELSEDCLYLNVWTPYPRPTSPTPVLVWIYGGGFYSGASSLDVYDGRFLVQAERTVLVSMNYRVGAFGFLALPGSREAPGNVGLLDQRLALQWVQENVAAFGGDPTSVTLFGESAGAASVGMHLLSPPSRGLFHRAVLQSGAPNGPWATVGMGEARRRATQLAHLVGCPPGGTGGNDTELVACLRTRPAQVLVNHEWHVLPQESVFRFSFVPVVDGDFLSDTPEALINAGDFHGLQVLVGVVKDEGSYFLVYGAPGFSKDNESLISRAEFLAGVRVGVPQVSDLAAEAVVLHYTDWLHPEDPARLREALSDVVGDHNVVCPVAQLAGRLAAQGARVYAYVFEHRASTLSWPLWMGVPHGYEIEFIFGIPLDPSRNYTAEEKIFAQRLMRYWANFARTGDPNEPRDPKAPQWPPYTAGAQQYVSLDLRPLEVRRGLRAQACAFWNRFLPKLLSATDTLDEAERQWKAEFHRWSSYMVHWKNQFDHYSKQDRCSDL

[4] = read-out: qAC50 (IC50), rHsAChE
[5] = Table 2, DOS-A library, Inactive = inactive at the maximum tested concentration (40 µM), read-out: IC50 (µM) rHsAChE
[6] = dose response curve classification, Table S4, DOS-A
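Wherever Inhibition (%) (Average) is given: mostly 20 µM final but a few compounds at 5 or 10 µM.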
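Wherever Inhibition (%) Replicate A is given: mostly 20 µM final but a few compounds at 5 or 10 µM.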
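Wherever Inhibition (%) Replicate B is given: mostly 20 µM final but a few compounds at 5 or 10 µM.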

Row | SMILES | Inhibition (%) (Average) (rSmTAChE [1]) | Inhibition (%) Replicate A (rSmTAChE [1]) [%] | Inhibition (%) Replicate B (rSmTAChE [1]) [%] | Data Mode (curve class), rSmTAChE (rSmTAChE [2]) | IC50 (rSmTAChE [2]) [µM] | Data Mode (curve class), rHsAChE [3] | IC50 [3, 4] [µM] | inhibition at 20 µM (rSmTAChE [1]) [%] | SI (Hs/Sm) (rSmTAChE [2]) | rSmTAChE Data Mode (rSmTAChE [2]) | IC50 [3, 5] [µM] | IC50 ([3]; Table S4, DOS-A (IC50 values; qAC50), read-out: rHsAChE qAC50) [µM] | rHsAChE Data Mode [3, 6] | rHsAChE Data Mode [3]
1 | C#C[C@]1(OC(C)=O)CC[C@H]2[C@@H]3CCC4=C[C@@H](OC(C)=O)CC[C@@H]4[C@H]3CC[C@@]21C [BRD-K46331928-001-05-8] | 94.91 | 95.51 | 94.31 | decreasing (weakly active) | > 38 | inactive |  |  |  |  |  |  |  | 
2 | CCCCCCCCCCCCCCCC[N+](C)(C)C [BRD-K47079459-004-04-6] | 64.20 | 65.92 | 62.47 | decreasing | 17 | decreasing | 10.3 |  |  |  |  |  |  | 
3 | CC(C)(C)[S+]([O-])N1Cc2cc(C(=O)NCCN3CCCC3)nc(-c3cccc(-c4ccc(C#N)cc4)c3)c2C1CCO (stereo not shown) [BRD-K49441594-001-01-4] |  |  |  |  |  |  |  | 61.8 | 2.35 | decreasing | 35.5 | 35.5 | decreasing | 
4 | O=C(C[C@H]1C[C@H]2c3cc(NC(=O)Nc4ccc(C(F)(F)F)cc4)ccc3O[C@H]2[C@H](CO)O1)NC1CCCCC1 [BRD-K50094564-001-01-3] | 69.15 | 68.27 | 70.03 |  |  |  |  |  |  | decreasing (weakly active) |  |  |  | inactive
5 | N#Cc1ccc(N2NC3=C(CCc4cc(C(=O)O)ccc43)[C@@H]2C2CCCC2)cc1Cl [BRD-K51041191-001-01-4] | 66.80 | 70.13 | 63.46 | decreasing (weakly active) | > 38 | decreasing (weakly active) | > 38 |  |  |  |  |  |  | 
6 | O=C1[C@@H]2[C@H]3CC[C@H](C3)[C@@H]2C(=O)N1C[C@@H]1CCCC[C@H]1CN1CCN(c2nsc3ccccc23)CC1 [BRD-K51143828-003-03-1] | 77.24 | 79.39 | 75.09 | decreasing (weakly active) | > 38 | inactive |  |  |  |  |  |  |  | 
7 | CC(C)Oc1ccc(-c2nn([C@@H](C)c3oc4ccc(F)cc4c(=O)c3-c3cccc(F)c3)c3ncnc(N)c23)cc1F [BRD-K52579889-001-01-9] | 65.60 | 66.50 | 64.70 | decreasing (weakly active) | > 38 | inactive |  |  |  |  |  |  |  | 
8 | CCc1nc(-c2cccc(C)c2)c(-c2ccnc(NC(=O)c3ccccc3)c2)s1 [BRD-K52751261-001-08-7] | 70.66 | 75.76 | 65.56 | inactive |  | decreasing (weakly active) | > 6.8 |  |  |  |  |  |  | 
9 | COc1ccc(C#Cc2ccc3c(c2)O[C@H](CN(C)S(=O)(=O)c2ccccc2F)[C@@H](C)CN([C@H](C)CO)S3(=O)=O)cc1 [BRD-K53241408-001-01-7] | 74.07 | 75.51 | 72.63 |  |  |  |  |  |  | inactive |  |  |  | inactive
10 | COc1ccc(NC(=O)Nc2ccc3c(c2)[C@H]2C[C@@H](CC(=O)NCC(F)(F)F)O[C@@H](CO)[C@H]2O3)cc1 [BRD-K54729370-001-01-4] | 90.84 | 91.00 | 90.69 |  |  |  |  |  |  | inactive |  |  |  | inactive
11 | CCCCC/C=C\C/C=C\C/C=C\C/C=C\CCCC(=O)Nc1ccc(O)cc1 [BRD-K55462201-001-07-3] | 74.15 | 71.40 | 76.90 | inactive |  | decreasing | 22.4 |  |  |  |  |  |  | 
12 | CCOC(=O)N1c2ccc(C(F)(F)F)cc2[C@@H](N(Cc2cc(C(F)(F)F)cc(C(F)(F)F)c2)C(=O)OC)C[C@H]1CC [BRD-K55675242-001-03-0] | 71.11 | 72.88 | 69.34 | inactive |  | decreasing (weakly active) | > 38 |  |  |  |  |  |  | 
13 | CCc1c(C(=O)NCCc2ccc(N3CCCCC3)cc2)[nH]c2ccc(Cl)cc12 [BRD-K57597776-001-01-2] | 61.28 | 60.33 | 62.24 | inactive |  | inactive |  |  |  |  |  |  |  | 
14 | O=C(Cc1cccc(OC(F)(F)F)c1)Nc1ccc(CCCCc2nnc(NC(=O)Cc3ccccn3)s2)nn1 [BRD-K58070273-001-03-3] | 71.54 | 74.28 | 68.80 | decreasing (weakly active) | > 38 | inactive |  |  |  |  |  |  |  | 
15 | CCCCCCCCCCCCc1ccc(S(=O)(=O)Nc2nncs2)cc1 [BRD-K59745944-001-04-6] | 78.08 | 80.43 | 75.72 | decreasing | 1.86 | decreasing | 1.16 |  |  |  |  |  |  | 
16 | C[C@@H]1C[C@H]2[C@@H]3CCC4=CC(=O)C=C[C@]4(C)[C@@]3(Cl)[C@@H](O)C[C@]2(C)[C@@]1(OC(=O)c1ccco1)C(=O)CCl [BRD-K60640630-001-11-0] | 71.97 | 69.48 | 74.46 | decreasing (weakly active) | > 38 | inactive |  |  |  |  |  |  |  | 
17 | CCCN1C[C@H](CSC)C[C@@H]2c3cccc4[nH]cc(c34)C[C@H]21 [BRD-K60770992-066-25-0] | 71.65 | 73.49 | 69.82 | decreasing (weakly active) | > 38 | decreasing | 29.7 |  |  |  |  |  |  | 
18 | COc1cccc(C#Cc2ccc([C@H]3[C@@H](C#N)N(C(=O)c4ccccn4)[C@@H]3CO)cc2)c1 [BRD-K61082257-001-01-7] | 66.17 | 65.93 | 66.40 |  |  |  |  |  |  | decreasing (weakly active) |  |  |  | inactive
19 | COc1ccc(NC(=O)Nc2ccc3c(c2)[C@@H]2C[C@H](CC(=O)NCc4ccccn4)O[C@@H](CO)[C@@H]2O3)cc1 [BRD-K62846431-001-01-3] | 77.92 | 78.02 | 77.82 |  |  |  |  |  |  | decreasing (weakly active) |  |  |  | decreasing (weakly active)
20 | COc1cccc(C#Cc2ccc([C@H]3[C@@H](CO)N(C(=O)c4ccccn4)[C@H]3C#N)cc2)c1 [BRD-K64190282-004-01-8, (2R,3R,4S)-4-(hydroxymethyl)-3-[4-[2-(3-methoxyphenyl)ethynyl]phenyl]-1-[oxo(2-pyridinyl)methyl]-2-azetidinecarbonitrile] |  |  |  |  |  |  |  | 92.2 | 2.59 | decreasing | 33.7 |  | decreasing | 
21 | O=C(C[C@H]1C[C@H]2c3cc(NC(=O)NC4CCCC4)ccc3O[C@H]2[C@@H](CO)O1)NCc1ccccc1F [BRD-K64460391-001-01-9] | 88.85 | 89.69 | 88.02 |  |  |  |  |  |  | decreasing (weakly active) |  |  |  | inactive
22 | O=C(Nc1ccccc1Br)N[C@@H]1CCN(c2ccc(C(F)(F)F)cn2)C1 [BRD-K65991129-001-02-9] | 65.52 | 67.06 | 63.99 | inactive |  | inactive |  |  |  |  |  |  |  | 
23 | COc1cccc(C#Cc2ccc([C@@H]3[C@@H](C#N)N(C(=O)c4ccccn4)[C@@H]3CO)cc2)c1 [BRD-K66084396-004-02-2] | 72.85 | 73.10 | 72.60 |  |  |  |  |  |  | inactive |  |  |  | inactive
24 | N#C[C@H]1[C@H](c2ccc(C3=CCCCC3)cc2)[C@@H](CO)N1S(=O)(=O)c1ccccc1 [BRD-K66729212-001-01-2] | 61.17 | 61.05 | 61.28 |  |  |  |  |  |  | inactive |  |  |  | inactive
25 | CCCCC(=O)O[C@H]1CC[C@H]2[C@@H]3CCc4cc(O)ccc4[C@H]3CC[C@]12C [BRD-K66766661-001-19-2] | 77.12 | 78.67 | 75.58 | inactive |  | decreasing | 29.4 |  |  |  |  |  |  | 
26 | COc1ccc(C#Cc2ccc3c(c2)O[C@@H](CN(C)S(=O)(=O)c2ccccc2F)[C@@H](C)CN([C@H](C)CO)S3(=O)=O)cc1 [BRD-K67027685-001-01-8] | 71.37 | 69.23 | 73.51 |  |  |  |  |  |  | inactive |  |  |  | inactive
